Results on two molecules are retold here after article PMC5761851, “Application of a phenotypic drug discovery strategy to identify biological and chemical starting points for inhibition of TSLP production in lung epithelial cells” (PLoS ONE, 2018).

Assay [1] addresses T1, H4 (Homo sapiens, UniProt Q9H3N8).
T1 construct: purchased Eurofins Pharma Discovery Services (KinaseProfiler; Cerep BioPrint panel)
The experiment in a line: BioPrint panel: H4 (h) (agonist). In kind it is binding. The following applies: 1 micromolar, read-out: percentage of inhibition of activity. The text has this:
(§1) Supplement pone.0189247.s004.xlsx, sheet "Bioprint Selectivity Panel" | column: %

The target in assay [2] is T2, M1 (Homo sapiens, UniProt P11229).
T2 construct: purchased Eurofins Pharma Discovery Services (KinaseProfiler; Cerep BioPrint panel)
Kind of assay: BioPrint panel: M1 (h) (antagonist). It counts as binding. The following applies: 1 micromolar, read-out: percentage of inhibition of activity.
Description: as §1

Assay [3] deals with T3, BB3 (Homo sapiens, UniProt P32247).
T3 construct: purchased Eurofins Pharma Discovery Services (KinaseProfiler; Cerep BioPrint panel)
Kind of assay: BioPrint panel: BB3 (h) (agonist). As to conditions: 1 micromolar, read-out: percentage of inhibition of activity. In kind it is binding.
Description: as §1

The target of assay [4] is T4, MC3 (Homo sapiens, UniProt P41968).
T4 construct: purchased Eurofins Pharma Discovery Services (KinaseProfiler; Cerep BioPrint panel)
The experiment in a line: BioPrint panel: MC3 (h) (agonist). As to conditions: 1 micromolar, read-out: percentage of inhibition of activity. In kind it is binding.
Description: as §1

For assay [5], the target named is T5, xanthine oxidase/ superoxide O2- scavenging (Bos taurus, UniProt P80457).
T5 construct: purchased Eurofins Pharma Discovery Services (KinaseProfiler; Cerep BioPrint panel)
The experiment in a line: BioPrint panel: xanthine oxidase/ superoxide O2- scavenging. As to conditions: 1 micromolar, read-out: percentage of inhibition of activity. It counts as biochemical.
Description: as §1

Assay [6] concerns the target T6, MC1 (Mus musculus, UniProt Q01727).
T6 construct: purchased Eurofins Pharma Discovery Services (KinaseProfiler; Cerep BioPrint panel)
The experiment in a line: BioPrint panel: MC1 (agonist). The following applies: 1 micromolar, read-out: percentage of inhibition of activity. In kind it is binding.
Description: as §1

The target of assay [7] is T7, CCK2 (CCKB) (Homo sapiens, UniProt P32239).
T7 construct: purchased Eurofins Pharma Discovery Services (KinaseProfiler; Cerep BioPrint panel)
Kind of assay: BioPrint panel: CCK2 (CCKB) (h) (agonist). The following applies: 1 micromolar, read-out: percentage of inhibition of activity. It counts as binding.
Description: as §1

Assay [8] has as its target T8, 5-HT1B (Rattus norvegicus, UniProt P28564).
T8 construct: purchased Eurofins Pharma Discovery Services (KinaseProfiler; Cerep BioPrint panel)
The experiment in a line: BioPrint panel: 5-HT1B (antagonist). It counts as binding. As to conditions: 1 micromolar, read-out: percentage of inhibition of activity.
Description: as §1

Assay [9] addresses T9, CRF1 (Homo sapiens, UniProt P34998).
T9 construct: purchased Eurofins Pharma Discovery Services (KinaseProfiler; Cerep BioPrint panel)
The experiment in a line: BioPrint panel: CRF1 (h) (agonist). In kind it is binding. As to conditions: 1 micromolar, read-out: percentage of inhibition of activity.
Description: as §1

Assay [10] has as its target T10, beta 2 (Homo sapiens, UniProt P07550).
T10 construct: purchased Eurofins Pharma Discovery Services (KinaseProfiler; Cerep BioPrint panel)
The experiment in a line: BioPrint panel: beta 2 (h) (agonist). In kind it is binding. The following applies: 1 micromolar, read-out: percentage of inhibition of activity.
Description: as §1

Assay [11] addresses T11, glucagon (Homo sapiens, UniProt P47871).
T11 construct: purchased Eurofins Pharma Discovery Services (KinaseProfiler; Cerep BioPrint panel)
Kind of assay: BioPrint panel: glucagon (h) (agonist). It counts as binding. The following applies: 1 micromolar, read-out: percentage of inhibition of activity.
Description: as §1

The target in assay [12] is T12, CDK2 (cycA) (Homo sapiens, UniProt P24941).
T12 construct: purchased Eurofins Pharma Discovery Services (KinaseProfiler; Cerep BioPrint panel)
Kind of assay: BioPrint panel: CDK2 (h) (cycA). In kind it is biochemical. As to conditions: 1 micromolar, read-out: percentage of inhibition of activity.
Description: as §1

For assay [13], the target named is T13, GR (Homo sapiens, UniProt P04150).
T13 construct: purchased Eurofins Pharma Discovery Services (KinaseProfiler; Cerep BioPrint panel)
The experiment in a line: BioPrint panel: GR (h) (agonist). It counts as binding. As to conditions: 1 micromolar, read-out: percentage of inhibition of activity.
Description: as §1

Assay [14] has as its target T14, beta 1 (Homo sapiens, UniProt P08588).
T14 construct: purchased Eurofins Pharma Discovery Services (KinaseProfiler; Cerep BioPrint panel)
Kind of assay: BioPrint panel: beta 1 (h) (agonist). As to conditions: 1 micromolar, read-out: percentage of inhibition of activity. In kind it is binding.
Description: as §1

Assay [15] concerns Ca2+ channel (L, diltiazem site). The experiment in a line: BioPrint panel: Ca2+ channel (L, diltiazem site)(antagonist). It counts as binding. As to conditions: 1 micromolar.
Description: as §1

For assay [16], the target named is T15, norepinephrine transporter (Homo sapiens, UniProt P23975).
T15 construct: purchased Eurofins Pharma Discovery Services (KinaseProfiler; Cerep BioPrint panel)
Kind of assay: BioPrint panel: norepinephrine transporter (h) (antagonist). In kind it is binding. As to conditions: 1 micromolar, read-out: percentage of inhibition of activity.
Description: as §1

In assay [17] the target is T16, 5-HT2B (Homo sapiens, UniProt P41595).
T16 construct: purchased Eurofins Pharma Discovery Services (KinaseProfiler; Cerep BioPrint panel)
The experiment in a line: BioPrint panel: 5-HT2B (h) (agonist). It counts as binding. As to conditions: 1 micromolar, read-out: percentage of inhibition of activity.
Description: as §1

Assay [18] deals with T17, Ca2+ channel (N) (Rattus norvegicus, UniProt Q02294).
T17 construct: purchased Eurofins Pharma Discovery Services (KinaseProfiler; Cerep BioPrint panel)
The experiment in a line: BioPrint panel: Ca2+ channel (N) (antagonist). The following applies: 1 micromolar, read-out: percentage of inhibition of activity. It counts as binding.
Description: as §1

The subject of assay [19] is AMPA. Kind of assay: BioPrint panel: AMPA (agonist). In kind it is binding. As to conditions: 1 micromolar.
Description: as §1

Assay [20] deals with T18, NOP (ORL1) (Homo sapiens, UniProt P41146).
T18 construct: purchased Eurofins Pharma Discovery Services (KinaseProfiler; Cerep BioPrint panel)
Kind of assay: BioPrint panel: NOP (ORL1) (h) (agonist). In kind it is binding. As to conditions: 1 micromolar, read-out: percentage of inhibition of activity.
Description: as §1

Assay [21] has as its target T19, D2S (Homo sapiens, UniProt P14416).
T19 construct: purchased Eurofins Pharma Discovery Services (KinaseProfiler; Cerep BioPrint panel)
The experiment in a line: BioPrint panel: D2S (h) (agonist). In kind it is binding. As to conditions: 1 micromolar, read-out: percentage of inhibition of activity.
Description: as §1

The target of assay [22] is T20, ACE-2 (Homo sapiens, UniProt Q9BYF1).
T20 construct: purchased Eurofins Pharma Discovery Services (KinaseProfiler; Cerep BioPrint panel)
The experiment in a line: BioPrint panel: ACE-2 (h). In kind it is biochemical. The following applies: 1 micromolar.
Description: as §1

The target in assay [23] is T21, MT3 (QR2) (Mesocricetus auratus, UniProt A0ABM2YAB8).
T21 construct: Eurofins Pharma Discovery Services (contract assay service)
T21 sequence (A0ABM2YAB8 1-231): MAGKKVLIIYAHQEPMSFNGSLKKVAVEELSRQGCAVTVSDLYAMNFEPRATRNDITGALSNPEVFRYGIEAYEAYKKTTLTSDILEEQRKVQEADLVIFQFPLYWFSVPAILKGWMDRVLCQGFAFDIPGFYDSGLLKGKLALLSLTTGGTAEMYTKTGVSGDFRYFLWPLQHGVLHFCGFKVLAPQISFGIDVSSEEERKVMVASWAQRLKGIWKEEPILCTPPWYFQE
Kind of assay: BioPrint panel: MT3. It counts as binding. Here is the method:
General selectivity profiling was performed at Eurofins Pharma Discovery Services using the BioPrint® panel and reference database. The panel included 104 binding assays (non-peptide, peptide and nuclear receptors, ion channels and amine transporters) and 41 cell based and enzyme assays (including 10 kinases, 9 proteases and 5 phosphodiesterases) (S4 Table). More than 70% were human targets. Compound 4 was tested at a concentration of 1 μM in duplicate (10 μM for P-gp and CYP enzymes). The resulting bioactivity fingerprint was compared with a database of >2,500 BioPrint marketed drugs and reference compounds. IC50 values for selected activities were further characterized at 8 concentrations in duplicate.

Assay [24] addresses T22, alpha 2B (Homo sapiens, UniProt P18089).
T22 construct: purchased Eurofins Pharma Discovery Services (KinaseProfiler; Cerep BioPrint panel)
Kind of assay: BioPrint panel: alpha 2B (h) (antagonist). It counts as binding. As to conditions: 1 micromolar, read-out: percentage of inhibition of activity.
Description: as §1

The subject of assay [25] is BZD (central). The experiment in a line: BioPrint panel: BZD (central) (agonist). In kind it is binding. The following applies: 1 micromolar.
Description: as §1

The target of assay [26] is T23, sst4 (Homo sapiens, UniProt P31391).
T23 construct: purchased Eurofins Pharma Discovery Services (KinaseProfiler; Cerep BioPrint panel)
The experiment in a line: BioPrint panel: sst4 (h) (agonist). The following applies: 1 micromolar, read-out: percentage of inhibition of activity. It counts as binding.
Description: as §1

The subject of assay [27] is CHO-K1 cells. Kind of assay: CHO-K1 viability (ATPlite). It counts as cell-based. The following applies: 25 μM. The method, then: The viability of NHBE and CHO-K1 cells was quantified using ATP as an indirect read out of the potential cytotoxicity of the compounds. […] Plates were shaken and covered with aluminium foil for 25 min. Luminescence was measured in an Envision reader (Perkin Elmer). Evaluation of viability in CHO-K1 cells was used as an internal compound cytotoxicity standard across cellular assays. […] The plates were incubated for 24 h at 37°C in 5% CO2. After the incubation period, the culture medium was removed and washed with 100 μl of DPBS. Test compounds were dissolved and serially diluted in 100% DMSO. A final 1/100 dilution of each concentration was performed using F12 culture medium with 0.5% FBS. A volume of 100 μl culture medium containing the compounds or 1% DMSO (for control wells) was added to the wells containing the cells and the plate was incubated again 24h. After 24h of compound exposure, cells were washed with DPBS. Then, 100 μl of PBS were added, followed by the addition of 100 μl of ATPlite™ reagent. The plate was shaken for 25 minutes using a microtiter plate shaker. Luminescence was measured using a Luminoskan Ascent luminometer (Thermo Fisher Scientific).
For CHO-K1 viability assays, a standard curve of cells was included in the plate. Luminescence values versus cell number were plotted and the data adjusted to a linear equation. Luminescence values of the samples were interpolated to obtain number of cells. IC50 values were obtained by non-linear regression using Activity Base software (IDBS) and a four-parameter log equation.
Background: ATP-based viability assays read luminescence as a measure of living cells.

Read-outs that look alike come from different tables or passages of the source.

T1 sequence (Q9H3N8 whole entry): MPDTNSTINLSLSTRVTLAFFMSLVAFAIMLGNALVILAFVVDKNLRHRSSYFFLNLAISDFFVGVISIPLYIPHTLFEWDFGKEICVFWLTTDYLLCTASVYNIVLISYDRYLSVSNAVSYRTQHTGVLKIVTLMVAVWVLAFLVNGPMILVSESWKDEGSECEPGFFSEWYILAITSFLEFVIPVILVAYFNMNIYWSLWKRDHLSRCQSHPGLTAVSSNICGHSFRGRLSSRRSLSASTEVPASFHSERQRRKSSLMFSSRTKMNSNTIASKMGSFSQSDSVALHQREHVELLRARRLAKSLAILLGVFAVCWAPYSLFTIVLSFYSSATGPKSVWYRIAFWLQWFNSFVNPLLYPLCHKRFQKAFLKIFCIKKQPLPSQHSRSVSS
T20 sequence (Q9BYF1 18-805): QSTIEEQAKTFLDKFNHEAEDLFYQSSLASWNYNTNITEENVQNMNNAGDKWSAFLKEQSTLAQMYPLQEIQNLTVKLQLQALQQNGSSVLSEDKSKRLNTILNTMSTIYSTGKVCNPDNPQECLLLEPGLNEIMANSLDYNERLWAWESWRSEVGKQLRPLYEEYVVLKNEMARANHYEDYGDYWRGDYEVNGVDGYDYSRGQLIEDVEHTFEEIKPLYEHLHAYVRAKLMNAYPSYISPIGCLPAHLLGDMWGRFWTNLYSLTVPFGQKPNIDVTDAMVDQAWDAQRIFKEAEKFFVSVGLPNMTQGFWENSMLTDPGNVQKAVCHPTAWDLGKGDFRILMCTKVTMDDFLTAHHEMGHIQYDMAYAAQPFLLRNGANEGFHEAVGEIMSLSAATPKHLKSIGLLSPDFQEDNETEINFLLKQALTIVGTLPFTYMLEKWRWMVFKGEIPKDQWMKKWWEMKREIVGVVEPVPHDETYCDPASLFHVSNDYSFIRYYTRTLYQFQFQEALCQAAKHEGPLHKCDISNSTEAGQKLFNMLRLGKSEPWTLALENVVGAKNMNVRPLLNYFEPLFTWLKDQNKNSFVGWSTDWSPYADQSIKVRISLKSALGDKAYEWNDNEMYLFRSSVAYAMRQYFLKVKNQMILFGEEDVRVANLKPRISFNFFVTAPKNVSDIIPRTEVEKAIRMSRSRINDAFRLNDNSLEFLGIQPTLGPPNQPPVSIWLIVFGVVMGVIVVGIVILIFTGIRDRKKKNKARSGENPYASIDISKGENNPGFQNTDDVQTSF
T16 sequence (P41595 whole entry): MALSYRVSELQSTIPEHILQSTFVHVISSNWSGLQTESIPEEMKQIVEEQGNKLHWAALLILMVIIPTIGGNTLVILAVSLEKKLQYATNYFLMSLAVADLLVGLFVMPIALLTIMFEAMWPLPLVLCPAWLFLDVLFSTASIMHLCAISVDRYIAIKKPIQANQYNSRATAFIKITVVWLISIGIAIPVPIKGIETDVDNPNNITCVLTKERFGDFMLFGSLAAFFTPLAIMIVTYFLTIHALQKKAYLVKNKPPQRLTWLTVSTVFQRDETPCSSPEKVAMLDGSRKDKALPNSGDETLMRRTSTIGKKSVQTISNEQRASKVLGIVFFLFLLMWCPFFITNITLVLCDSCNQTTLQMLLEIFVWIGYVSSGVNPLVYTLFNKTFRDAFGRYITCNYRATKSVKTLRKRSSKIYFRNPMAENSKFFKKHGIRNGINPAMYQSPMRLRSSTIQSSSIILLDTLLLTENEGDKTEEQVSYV
T5 sequence (P80457 whole entry): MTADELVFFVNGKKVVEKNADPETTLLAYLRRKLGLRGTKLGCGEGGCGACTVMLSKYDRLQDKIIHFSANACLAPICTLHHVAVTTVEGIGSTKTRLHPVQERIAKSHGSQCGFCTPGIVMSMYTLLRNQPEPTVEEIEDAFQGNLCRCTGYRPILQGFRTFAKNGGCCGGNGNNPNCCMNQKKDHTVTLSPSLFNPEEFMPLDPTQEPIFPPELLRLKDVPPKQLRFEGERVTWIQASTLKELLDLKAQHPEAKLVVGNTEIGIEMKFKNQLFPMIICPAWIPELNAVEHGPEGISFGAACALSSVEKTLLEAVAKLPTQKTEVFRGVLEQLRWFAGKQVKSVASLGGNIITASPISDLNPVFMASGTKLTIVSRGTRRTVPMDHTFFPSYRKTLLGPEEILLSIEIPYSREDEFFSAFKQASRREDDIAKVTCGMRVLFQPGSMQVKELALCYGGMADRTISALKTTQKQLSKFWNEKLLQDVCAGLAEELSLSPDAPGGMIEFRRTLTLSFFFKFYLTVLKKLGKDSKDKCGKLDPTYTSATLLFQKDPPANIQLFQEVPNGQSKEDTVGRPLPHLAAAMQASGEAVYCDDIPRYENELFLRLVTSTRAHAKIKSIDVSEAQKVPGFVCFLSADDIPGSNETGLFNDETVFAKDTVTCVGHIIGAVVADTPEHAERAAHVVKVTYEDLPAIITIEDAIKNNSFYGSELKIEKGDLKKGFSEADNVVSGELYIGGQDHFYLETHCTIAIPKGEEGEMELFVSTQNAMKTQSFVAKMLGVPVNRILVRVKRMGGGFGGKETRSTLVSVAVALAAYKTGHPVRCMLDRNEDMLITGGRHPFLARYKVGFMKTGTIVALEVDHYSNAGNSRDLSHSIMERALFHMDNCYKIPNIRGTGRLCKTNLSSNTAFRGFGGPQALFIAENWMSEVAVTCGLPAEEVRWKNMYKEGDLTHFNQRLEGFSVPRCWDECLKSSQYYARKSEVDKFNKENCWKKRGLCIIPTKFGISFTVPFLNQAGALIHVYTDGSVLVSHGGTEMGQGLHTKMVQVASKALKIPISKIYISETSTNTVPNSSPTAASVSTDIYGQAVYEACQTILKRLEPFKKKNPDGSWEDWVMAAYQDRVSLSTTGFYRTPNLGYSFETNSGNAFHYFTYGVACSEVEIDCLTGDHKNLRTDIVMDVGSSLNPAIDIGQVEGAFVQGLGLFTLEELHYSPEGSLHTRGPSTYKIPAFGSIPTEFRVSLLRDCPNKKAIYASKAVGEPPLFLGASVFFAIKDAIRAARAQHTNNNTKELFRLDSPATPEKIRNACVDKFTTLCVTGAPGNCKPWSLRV
T11 sequence (P47871 26-477): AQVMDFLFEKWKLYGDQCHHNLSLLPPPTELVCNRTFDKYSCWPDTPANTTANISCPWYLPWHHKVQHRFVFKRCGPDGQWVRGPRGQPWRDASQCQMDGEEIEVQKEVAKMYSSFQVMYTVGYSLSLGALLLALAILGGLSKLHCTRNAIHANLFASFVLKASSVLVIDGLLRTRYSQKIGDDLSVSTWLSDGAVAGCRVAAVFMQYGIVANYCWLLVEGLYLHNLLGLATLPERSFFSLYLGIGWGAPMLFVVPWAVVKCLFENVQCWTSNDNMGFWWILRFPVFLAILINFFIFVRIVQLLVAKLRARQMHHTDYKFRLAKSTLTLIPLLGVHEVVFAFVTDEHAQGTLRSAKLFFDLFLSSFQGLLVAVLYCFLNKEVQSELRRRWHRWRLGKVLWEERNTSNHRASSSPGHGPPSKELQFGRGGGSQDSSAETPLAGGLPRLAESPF
T15 sequence (P23975 whole entry): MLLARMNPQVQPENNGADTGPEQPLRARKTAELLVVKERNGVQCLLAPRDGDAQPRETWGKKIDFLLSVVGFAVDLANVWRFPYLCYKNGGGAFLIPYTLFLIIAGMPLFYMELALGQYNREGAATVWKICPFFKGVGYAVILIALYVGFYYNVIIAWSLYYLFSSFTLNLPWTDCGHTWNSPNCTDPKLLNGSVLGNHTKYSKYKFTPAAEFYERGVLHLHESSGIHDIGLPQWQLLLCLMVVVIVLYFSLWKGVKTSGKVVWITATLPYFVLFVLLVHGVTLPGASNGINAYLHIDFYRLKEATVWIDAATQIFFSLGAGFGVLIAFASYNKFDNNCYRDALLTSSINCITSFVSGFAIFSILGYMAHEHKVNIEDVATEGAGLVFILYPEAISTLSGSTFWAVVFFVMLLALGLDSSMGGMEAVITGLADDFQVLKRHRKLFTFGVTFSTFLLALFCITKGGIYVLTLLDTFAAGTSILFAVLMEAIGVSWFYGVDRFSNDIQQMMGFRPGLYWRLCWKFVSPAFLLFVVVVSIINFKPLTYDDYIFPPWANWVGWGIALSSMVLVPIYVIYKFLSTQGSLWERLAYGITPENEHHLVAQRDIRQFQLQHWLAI
T7 sequence (P32239 whole entry): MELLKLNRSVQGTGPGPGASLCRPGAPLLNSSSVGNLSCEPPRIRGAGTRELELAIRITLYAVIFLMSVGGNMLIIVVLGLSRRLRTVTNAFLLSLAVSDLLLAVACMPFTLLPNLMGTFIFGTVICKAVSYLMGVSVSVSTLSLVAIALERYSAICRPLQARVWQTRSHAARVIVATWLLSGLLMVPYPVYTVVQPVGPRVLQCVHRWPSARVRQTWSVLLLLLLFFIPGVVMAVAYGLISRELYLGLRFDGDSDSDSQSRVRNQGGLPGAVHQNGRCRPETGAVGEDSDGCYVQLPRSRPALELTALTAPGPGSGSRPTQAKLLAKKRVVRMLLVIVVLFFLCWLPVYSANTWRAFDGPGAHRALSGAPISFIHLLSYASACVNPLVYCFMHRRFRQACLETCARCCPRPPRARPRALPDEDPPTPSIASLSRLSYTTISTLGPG
T6 sequence (Q01727 whole entry): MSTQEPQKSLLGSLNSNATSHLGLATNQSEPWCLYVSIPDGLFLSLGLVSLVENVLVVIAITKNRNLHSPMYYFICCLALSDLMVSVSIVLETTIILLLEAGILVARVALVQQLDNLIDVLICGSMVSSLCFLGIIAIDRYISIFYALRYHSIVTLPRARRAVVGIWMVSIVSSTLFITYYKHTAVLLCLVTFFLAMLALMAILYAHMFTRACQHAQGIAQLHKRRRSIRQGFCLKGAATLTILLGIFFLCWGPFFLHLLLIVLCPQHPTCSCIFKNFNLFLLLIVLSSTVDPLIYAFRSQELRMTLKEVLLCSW

Usually inhibition stands for the change of the read-out against control, counted positive when it falls. Broadly, the IC50 is the point on the concentration scale where inhibition reaches its midpoint. `Cn1cc(-c2cccc(-c3nc(C(=O)NC4C5CC6CC4CC(O)(C6)C5)c(N)nc3N)c2)cn1` (centres unmarked) [compound 4]: the inhibition at 1 µM in assay [1] is -1.7%; in assay [2] it was -16.7%; in assay [3], -3.6%; in assay [4], 8.8%; in [5], -15.3%; in [6] it was -2.3%. Also, the inhibition at 1 µM is -3.4% in assay [7]; -1.1% in assay [8]; -37% in assay [9]; 1.6% in assay [10]; -8.3% in [11]; -7.9% in assay [12]. Besides, the inhibition at 1 µM in assay [13] is 0.9%; in assay [14] it was -1.8%; in [16], 26.7%; in [17], -7.9%; in assay [18], -2.7%; in assay [20] it was 12.3%. Further, the inhibition at 1 µM was -1.5% in assay [21]; 71% in assay [23] (1 μM, read-out: inhibition of MT3); 71.9% in assay [23] (1 micromolar, MT3 (ML2) (agonist), read-out: percentage of inhibition of activity); -6.6% in assay [24]; -11.8% in assay [26]. Besides, the “percentage of inhibition of activity” value is on record as -22.4% in [15], 3.7% in [19], “INTER” in [22] and -11.1% in assay [25]. Also, the IC50 in assay [23] (dose response, duplicate, read-out: Inhibition of indicated activity (IC50, μM): MT3 (QR2)) worked out at 0.4 µM.
`COc1c(NC(=O)c2ccc(C)c(-c3nnc4c(NCC(C)(C)C)nccn34)c2)cc(C(C)(C)C)cc1NS(C)(=O)=O` [compound 7, reference compound]: the “Inhibition of CHO viability at [25 μM] % Inhibition ± SD” value in assay [27] is recorded as 0.39 ± 11%.
